Experimental data taken from publication PMC6149822, “A New Series of Pyrrole-Based Chalcones: Synthesis and Evaluation of Antimicrobial Activity, Cytotoxicity, and Genotoxicity” (Molecules : A Journal of Synthetic Chemistry and Natural …, 2017).
≈ marks a conversion by molar mass, not a printed value.

How the values were obtained:
E. coli (ATCC 25922) = assay: Microdilution susceptibility assay (MIC); type: cell-based; conditions: Escherichia coli, ATCC25922
Experimental: (§1) Compounds 1–10 were screened for their antimicrobial activity against gram-negative bacteria, gram-positive bacteria, and yeasts, listed in Table 1. Bacteria were grown in Mueller-Hinton Broth and yeasts were grown in Sabouraud Dextrose Broth (SDB) during experiments. Overnight cultures were prepared routinely by subculturing of stock culture onto Mueller-Hinton Agar for bacteria and Sabouraud Dextrose Agar for yeasts.
(§2) Microdilution susceptibility assay was used for the determination of antibacterial and anticandidal efficacy of compounds 1–10. Chloramphenicol and ketoconazole were used as positive controls for bacteria and yeasts, respectively. All experiments were designed according to the Clinical Laboratory Standards Institute (CLSI). All chemicals were dissolved in dimethyl sulfoxide (DMSO) to obtain stock solution (10 mg/mL). Two-fold serial dilutions (800, 400, 200...0.78 µg/mL) of the compounds were prepared from stock solutions with dH2O. 100 µL of each solution was transferred to 96-well microtiter plates and 100 µL of 10^6 CFU/mL of bacteria and 2 × 10^3 of CFU/mL yeast were added to related wells. As negative controls, wells including microorganisms without agents and wells including agents without microorganisms were used. The plates were kept at 35 °C for 18–20 h and the growth was determined with resazurin (20 mg/mL). Assays were carried out in triplicate.

E. faecalis (ATCC 29212) [1] = assay: Microdilution susceptibility assay (MIC); type: cell-based; conditions: Enterococcus faecalis, ATCC29212
Experimental: as §1, §2

E. faecalis (ATCC 51299) = assay: Microdilution susceptibility assay (MIC); type: cell-based; conditions: Enterococcus faecalis, ATCC51299
Experimental: as §1, §2

[2] = test system: K. pneumoniae (ATCC 700603); assay: Microdilution susceptibility assay (MIC); type: cell-based; conditions: Klebsiella pneumoniae, ATCC700603
Experimental: as §1, §2

S. aureus (ATCC 25923) = assay: Microdilution susceptibility assay (MIC); type: cell-based; conditions: Staphylococcus aureus, ATCC25923
Experimental: as §1, §2

[3] = test system: A549 human lung adenocarcinoma cell line; assay: MTT assay; type: cell-based; conditions: for IC50: Homo sapiens, A549
Experimental: (§3) The anticancer effects of compounds 1–10 on A549 human lung adenocarcinoma (ATCC® CCL-185™), HepG2 human hepatocellular carcinoma (ATCC® HB-8065™), and C6 rat glioma (ATCC® CCL107™) cell lines were assessed using 3-(4,5-Dimethylthiazol-2-yl)-2,5-diphenyltetrazolium bromide (MTT) assay, whereas the selectivity of compounds 1–10 was tested using NIH/3T3 mouse embryonic fibroblast cell line (ATCC® CRL-1658™, London, UK). All cell lines were incubated according to the supplier’s recommendations. The cells were seeded as 1 × 10^4 cells into each well of the 96-well plates. MTT assay was performed as previously described. The compounds were tested between the concentrations equal to 1 mM and 0.000316 mM (1.0, 0.316, 0.10, 0.0316, 0.01, 0.00316, 0.001, 0.000316 mM). Stock solutions of compounds were prepared in dimethyl sulfoxide (DMSO) and further dilutions were made with fresh culture medium. The final DMSO concentration was under 1% [34] and cisplatin was used as a positive control. Inhibition % was calculated for each concentration according to the formula below, and IC50 values were determined by plotting a dose–response curve of inhibition % versus compound concentrations tested. All experiments were performed in quadruplicate.Inhibition % = 100 − [(ODtest compound − ODblank/ODsolvent control − ODblank)] × 100(1)

C6 rat glioma cell line = assay: MTT assay; type: cell-based; conditions: for IC50: Rattus norvegicus, C6
Experimental: as §3

[4] = test system: HepG2 human hepatocellular carcinoma cell line; assay: MTT assay; type: cell-based; conditions: for IC50: Homo sapiens, HepG2
Experimental: as §3

[5] = test system: NIH/3T3 mouse embryonic fibroblast cell line; assay: MTT assay; type: cell-based; conditions: for IC50: Mus musculus, NIH3T3, healthy cells for selectivity
Experimental: as §3

C. albicans (ATCC 90028) = assay: Microdilution susceptibility assay (MIC); type: cell-based; conditions: Candida albicans, ATCC90028
Experimental: as §1, §2

C. glabrata (ATCC 90030) = assay: Microdilution susceptibility assay (MIC); type: cell-based, Candida glabrata; conditions: Nakaseomyces glabratus, ATCC90030
Experimental: as §1, §2

[6] = test system: C. parapsilosis (ATCC 22019); assay: Microdilution susceptibility assay (MIC); type: cell-based, Candida parapsilosis; conditions: Lodderomyces parapsilosis, ATCC22019
Experimental: as §1, §2

C. krusei (ATCC 6258) = assay: Microdilution susceptibility assay (MIC); type: cell-based, Candida krusei; conditions: Pichia kudriavzevii, ATCC6258
Experimental: as §1, §2

E. faecalis (ATCC 29212) [7] = assay: ATP luminescence microbial cell viability assay; type: cell-based, Enterococcus faecalis; conditions: 24 h treatment, result in words
Experimental: (§4) A model from BioTek Instruments Inc. combined with a BacTiter-Glo^TM Microbial Cell Viability assay (Promega Corp., Madison, WI, USA) was used to provide a sensitive and rapid method for determining the number of viable microbial cells in culture based on quantitation of the ATP present. […] After incubation, cultures were added into the wells (final concentration of bacteria was 5 × 10^5 CFU/mL and 2.5 × 10^6 CFU/mL for yeasts). After adding the BacTiter reagent, incubation time for bacteria and yeasts was 5 min and 15 min, respectively.
(§5) The assay generates a “glow-type” luminescent signal, produced by the luciferase reaction. Briefly, after chemicals and strains were incubated for 24 h, 100 µL of the culture was taken from each well and mixed with the same volume of the BacTiter-Glo™ reagent in a white, opaque-walled microtiter plate. Control wells containing medium without cells were prepared to obtain a value for background luminescence. Cells without compound were used as an ATP-positive control. The microplates were further incubated under agitation for 7 min. Bioluminescence was recorded in a multi-detection microplate reader (BioTek Synergy 2 Multi-Mode Microplate Reader, BioTek Instruments, Winooski, VT, USA). In Figure 3, results were given as percentage of untreated control, which is set at 100%. Experiments were performed in triplicate and each sample was measured in four replicates.

C. glabrata = assay: ATP luminescence microbial cell viability assay; type: cell-based, Candida glabrata; conditions: 24 h treatment, result in words
Experimental: as §4, §5

| SMILES | MIC (E. coli (ATCC 25922)) | MIC (E. faecalis (ATCC 29212) [1]) | MIC (E. faecalis (ATCC 51299)) | MIC [2] | MIC (S. aureus (ATCC 25923)) | IC50 A549 Cell Line [3] | IC50 C6 Cell Line (C6 rat glioma cell line) | IC50 HepG2 Cell Line [4] | IC50 NIH/3T3 Cell Line ([5]; healthy cells for selectivity) | MIC (C. albicans (ATCC 90028)) | MIC (C. glabrata (ATCC 90030)) | MIC [6] | MIC (C. krusei (ATCC 6258)) | antimicrobial activity in ATP bioluminescence assay (E. faecalis (ATCC 29212) [7]) | IC50 [3] | IC50 (C6 rat glioma cell line) | IC50 [4] | IC50 [5] | melting point | antifungal activity in ATP bioluminescence assay (C. glabrata) |
| --- | --- | --- | --- | --- | --- | --- | --- | --- | --- | --- | --- | --- | --- | --- | --- | --- | --- | --- | --- | --- |
| O=C(N[C@H](CO)[C@H](O)c1ccc([N+](=O)[O-])cc1)C(Cl)Cl [Chloramphenicol, reference compound] | 25 µg/mL (≈ 77.4 µM) | 50 µg/mL (≈ 155 µM) | 100 µg/mL (≈ 309 µM) | 50 µg/mL (≈ 155 µM) | 25 µg/mL (≈ 77.4 µM) |  |  |  |  |  |  |  |  |  |  |  |  |  |  |  |
| N.N.[Cl][Pt][Cl] [Cisplatin, reference compound] |  |  |  |  |  | 19 µg/mL | 46 µg/mL | 38 µg/mL | >300 µg/mL |  |  |  |  |  |  |  |  |  |  |  |
| Cn1cccc1C(=O)C=Cc1ccc(-c2ccc([N+](=O)[O-])cc2)o1 [Compound 1, 1-(1-Methyl-1H-pyrrol-2-yl)-3-(5-(4-nitrophenyl)furan-2-yl)prop-2-en-1-one] | 100 µg/mL (≈ 310 µM) | 100 µg/mL (≈ 310 µM) | 200 µg/mL (≈ 621 µM) | 200 µg/mL (≈ 621 µM) | 200 µg/mL (≈ 621 µM) |  |  |  |  | 100 µg/mL (≈ 310 µM) | 200 µg/mL (≈ 621 µM) | 100 µg/mL (≈ 310 µM) | 200 µg/mL (≈ 621 µM) | sensitive | 0.3 µg/mL (≈ 0.931 µM) | 84 µg/mL (≈ 261 µM) | 322 µg/mL (≈ 999 µM) | 109 µg/mL (≈ 338 µM) | 179 to 181 °C |  |
| Cn1cccc1C(=O)C=Cc1ccc(-c2ccc(Cl)cc2[N+](=O)[O-])o1 [Compound 4, 1-(1-Methyl-1H-pyrrol-2-yl)-3-(5-(2-nitro-4-chlorophenyl)furan-2-yl)prop-2-en-1-one] | 100 µg/mL (≈ 280 µM) | 200 µg/mL (≈ 561 µM) | 200 µg/mL (≈ 561 µM) | 100 µg/mL (≈ 280 µM) | 100 µg/mL (≈ 280 µM) |  |  |  |  | 200 µg/mL (≈ 561 µM) | 100 µg/mL (≈ 280 µM) | 50 µg/mL (≈ 140 µM) | 200 µg/mL (≈ 561 µM) |  | > 357 µg/mL | > 357 µg/mL | 100 µg/mL (≈ 280 µM) | 36 µg/mL (≈ 101 µM) | 133 to 134 °C | antifungal activity close to ketoconazole |
